# Test results reported in US20090227559A1, “SNPS IN THE APOB GENE AND SUSCEPTIBILITY TO INCREASED LEVELS OF ALAT FOLLOWING XIMELAGATRAN ADMINISTRATION” (AstraZeneca AB, priority 2005, published 2009).
# Assay: Clinical trials, longer-term ximelagatran treatment: ALAT elevation in patients
# Assay type: in vivo, human
# Excerpt: Alanine aminotransferase (ALAT) is an enzyme mostly expressed in the liver (EC 2.6.1.2). It is also called serum glutamate pyruvate transaminase (SGPT) or alanine transaminase (ALT). This enzyme is release into the plasma by liver cell death, which is a normal event. However, when liver cell death increases, ALAT levels rise above the normal range. The spillover of this enzyme into blood is routinely measured as a marker of abnormal liver-cell damage. For example, alcoholic or viral hepatitis will increase ALAT levels, as will severe congestive heart failure. ALAT is also markedly raised in hepatitis and other acute liver damage. An elevated ALAT in the presence of normal levels of plasma alkaline phosphatase helps distinguish liver disease caused by liver-cell damage from diseases caused by problems in biliary ducts. Elevations of ALAT are normally measured in multiples of the upper limit of normal (ULN), with a reference range of 15-45 U/L in most laboratories. In 1987, in a study of 19,877 healthy Air Force recruits, only 99 (0.5%) had confirmed ALAT elevations (as reviewed in Green & Flamm (2002) Gastroenterology 123:1367-1384).
# Subject to the future regulatory approval of ximelagatran, regular liver function testing (LFT) using an appropriate algorithm may be required if ximelagatran is used for treatment periods exceeding a month. Studies are currently ongoing to try and establish the mechanism of the ALAT elevations, and their hepatic and overall clinical significance.
smiles,measurement,setting,value
"CCOC(=O)CN[C@@H](C(=O)N1CC[C@H]1C(=O)NCc1ccc(/C(N)=N\O)cc1)C1CCCCC1 [ximelagatran, EtOOC—CH2—(R)Cgl-Aze-Pab-OH]",symptoms accompanying ALAT increases,longer-term treatment,mainly asymptomatic
same,patients exhibiting levels of alanine aminotransferase (ALAT) 3-fold or more above the upper limit of normal (≧3×ULN),"longer-term treatment (>35 days), 1.2% in the comparator groups",7.9%
same,reversibility of ALAT increases,regardless of whether treatment was continued or discontinued,reversible in most patients
same,time of occurrence of the increase in ALAT values,"usually, from start of treatment",≤ 6 months
